Experimental findings from patent US7838535B2, “Compounds having β2 adrenergic receptor agonist and muscarinic receptor antagonist activity” (Theravance, Inc., priority 2003, dated 2010) are described below.

Assay [1] addresses T1, human dopamine D2S receptor (Homo sapiens, UniProt P14416).
T1 construct: expressed in transfected cells; host or cells: CHO cells, transfected, cell membrane homogenates
Nature of the assay: Radioligand competition binding assay in cloned human dopamine D2S receptor. The settings on record: test concentration 100 nM, 0.3 nM [3H]spiperone, transfected CHO cell membranes; read-out: percent inhibition of the control radioligand specific binding. The method, then: In this assay, the binding affinity of test compounds for the human dopamine D2S receptor in transfected CHO cells is determined using a radioligand binding assay (Grady et al., Proc. Natl. Acad. Sci. USA 86:9762 (1989). Cell membrane homogenates (5-10 μg protein) were incubated for 60 minutes at 22° C. with 0.3 nM [^3H]spiperone in the absence or presence of a test compound in a buffer containing 50 mM Tris-HCl (pH 7.4), 120 mM NaCl, 5 mM KCl, 5 mM MgCl2 and 1 mM EDTA. The test compound was used at a test concentration of 100 nM. Nonspecific binding was determined in the presence of 10 μM (+)-butaclamol. Following incubation, the samples were filtered rapidly under vacuum through glass fiber filters (GF/B, Packard) presoaked with 0.3% polyethyleneimine and rinsed several times with ice-cold 50 mM Tris-HCl using a 96-sample cell harvester (Unifilter, Packard). The filters were dried, and then counted for radioactivity in a scintillation counter (Topcount, Packard) using a scintillation cocktail (Microscint 0, Packard). The results were expressed as a percent inhibition of the control radioligand specific binding.
Background: Displacement assays read how much labelled ligand stays bound in the presence of the test substance.

The target in assay [2] is T2, hM2 receptor (Homo sapiens, UniProt P08172).
T2 construct: expressed in transfected cells
T2 sequence (P08172 1-466): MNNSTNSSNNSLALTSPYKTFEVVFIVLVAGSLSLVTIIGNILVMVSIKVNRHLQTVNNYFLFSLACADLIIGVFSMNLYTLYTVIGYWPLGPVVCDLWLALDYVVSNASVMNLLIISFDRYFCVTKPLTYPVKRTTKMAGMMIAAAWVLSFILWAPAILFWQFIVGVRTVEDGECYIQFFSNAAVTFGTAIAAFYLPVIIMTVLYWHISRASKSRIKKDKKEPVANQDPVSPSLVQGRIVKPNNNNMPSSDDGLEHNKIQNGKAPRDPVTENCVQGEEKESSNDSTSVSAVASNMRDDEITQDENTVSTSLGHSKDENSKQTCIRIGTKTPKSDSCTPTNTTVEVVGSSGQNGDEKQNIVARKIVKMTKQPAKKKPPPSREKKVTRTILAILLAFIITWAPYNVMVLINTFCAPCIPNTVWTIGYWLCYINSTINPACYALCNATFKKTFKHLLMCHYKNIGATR
Nature of the assay: Blockade of agonist-mediated [35S]GTPγS binding, CHO-K1 membranes expressing hM2. The assay is classed as biochemical. The settings on record: CHO-K1 cells expressing the hM2 receptor; read-out: Ki value for blockade of oxotremorine-stimulated [35S]GTPγS-binding. The method, then:
In a second functional assay, the functional potency of test compounds is determined by measuring the ability of the compounds to block oxotremorine-stimulated [^35S]GTPγS binding in CHO-K1 cells expressing the hM2 receptor.
At the time of use, frozen membranes were thawed and then diluted in assay buffer with a final target tissue concentration of 5-10 μg protein per well. The membranes were briefly homogenized using a Polytron PT-2100 tissue disrupter and then added to the assay plates.
The EC90 value (effective concentration for 90% maximal response) for stimulation of [^35S]GTPγS binding by the agonist oxotremorine was determined in each experiment.
To determine the ability of a test compound to inhibit oxotremorine-stimulated [^35S]GTPγS binding, the following was added to each well of 96 well plates: 25 μL of assay buffer with [^35S]GTPγS (0.4 nM), 25 μL of oxotremorine (EC90) and GDP (3 uM), 25 μL of diluted test compound and 25 μL CHO cell membranes expressing the hM2 receptor. […] Microscint-20 scintillation liquid (50 μL) was added to each well, and each plate was sealed and radioactivity counted on a Topcounter (PerkinElmer). Data were analyzed by nonlinear regression analysis with the GraphPad Prism Software package (GraphPad Software, Inc., San Diego, Calif.) using the non-linear regression, one-site competition equation. […]

Molecules are shown by their SMILES. Counter-ions that a name gives are not always drawn.

What is called inhibition is the share of the control response that was lost under treatment. Broadly, the Ki is the dissociation constant of the complex between target and ligand, obtained from inhibition or displacement.

T1 sequence (P14416 1-414 isoform P14416-2): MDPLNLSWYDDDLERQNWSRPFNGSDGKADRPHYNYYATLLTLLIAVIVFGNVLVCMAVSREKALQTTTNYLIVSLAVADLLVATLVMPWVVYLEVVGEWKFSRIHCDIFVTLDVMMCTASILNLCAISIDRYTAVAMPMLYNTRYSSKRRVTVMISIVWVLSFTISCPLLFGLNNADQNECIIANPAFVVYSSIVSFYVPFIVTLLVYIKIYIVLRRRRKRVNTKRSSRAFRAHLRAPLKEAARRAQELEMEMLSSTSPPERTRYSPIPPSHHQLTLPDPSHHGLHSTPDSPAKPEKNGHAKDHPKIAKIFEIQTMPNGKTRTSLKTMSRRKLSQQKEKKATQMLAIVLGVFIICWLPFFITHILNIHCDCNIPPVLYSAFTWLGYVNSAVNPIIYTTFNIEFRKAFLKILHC

Consider `O=C(Nc1ccccc1-c1ccccc1)OC1CCN(CCCCCCCCCNCCc2ccc(O)c3[nH]c(=O)sc23)CC1` [Example 1, Biphenyl-2-ylcarbamic Acid 1-{9-[2-(4-Hydroxy-2-oxo-2,3-dihydrobenzothiazol-7-yl)-ethylamino]nonyl}piperidin-4-yl Ester Bis(trifluoroacetate) Salt], for which the inhibition at 0.1 µM in assay [1] is > 75%. In addition, the Ki in assay [2] was < 10 nM.

For the molecule `O=C(CCN1CCC(OC(=O)Nc2ccccc2-c2ccccc2)CC1)Nc1ccc(CNCCc2ccc(O)c3[nH]c(=O)sc23)cc1` [Example 2, Biphenyl-2-ylcarbamic Acid 1-[2-(4-{[2-(4-Hydroxy-2-oxo-2,3-dihydrobenzothiazol-7-yl)ethylamino]methyl}phenylcarbamoyl)ethyl]-piperidin-4-yl Ester Bis(trifluoroacetate) Salt], the inhibition at 0.1 µM in assay [1] was > 30%.
